Assays:
[1] = tested on: 3T3-L1 adipocyte cells; test: Insulin stimulated uptake of radiolabeled 2-deoxyglucose; type: cell-based, murine; details: 10 μM concentration
[2] = tested on: MAP kinase; test: Whole cell MAP kinase assay, PC-12 cells stimulated with NGF; type: cell-based; details: Rattus norvegicus, read-out: IC50, activation of MAP kinase in whole cells
Procedure: (§1) To determine if compounds were able to block activation of MAP kinase in whole cells, the following protocol was used: Cells were plated in multi-well plates and grown to confluence. Cells were then serum-deprived overnight. Cells were exposed to the desired concentrations of compound or vehicle (DMSO) for 30 minutes, followed by addition of a growth factor, e.g., PDGF (100 ng/mL). After a 5-minute treatment with the growth factor, cells were washed with PBS, then lysed in a buffer consisting of 70 mM NaCl, 10 mM HEPES (pH 7.4), 50 mM glycerol phosphate, and 1% Triton X-100. Lysates were clarified by centrifugation at 13,000×g for 10 minutes. Five micrograms of the resulting supernatants were incubated with 10 μg microtubule associated protein-2 (Map2) for 15 minutes at 30° C. in a final volume of 25 μL containing 50 mM Tris (pH 7.4), 10 mM MgCl2, 2 mM EGTA and 30 μM [γ-^32 P]ATP. Reactions were terminated by addition of Laemmli sample buffer. Phosphorylated Map2 was resolved on 7.5% acrylamide gels and incorporated radioactivity determined by autoradiography and subsequent excision of the bands followed by scintillation counting.

[3] = tested on: K-Ras/Balb; test: Growth in soft-agar, K-Ras/Balb; type: cell-based; details: Mus musculus, anchorage independent (soft agar clonogenicity)
Procedure: (§2) Cells were seeded into 35-mm dishes at 5 to 10,000 cells/dish using growth medium containing 0.3% agar. After chilling to solidify the agar, cells were transfered to a 37° C. incubator. After 7 to 10 days growth, visible colonies were manually enumerated with the aid of a dissecting microscope.

[4] = molecular target: NGFR (trk-A) Tyrosine kinase (Homo sapiens, UniProt P04629); test: Kinase selectivity: NGFR (trk-A) Tyrosine kinase; type: biochemical; details: 50 μM concentration
Sequence of NGFR (trk-A) Tyrosine kinase (P04629 33-796, species assumed): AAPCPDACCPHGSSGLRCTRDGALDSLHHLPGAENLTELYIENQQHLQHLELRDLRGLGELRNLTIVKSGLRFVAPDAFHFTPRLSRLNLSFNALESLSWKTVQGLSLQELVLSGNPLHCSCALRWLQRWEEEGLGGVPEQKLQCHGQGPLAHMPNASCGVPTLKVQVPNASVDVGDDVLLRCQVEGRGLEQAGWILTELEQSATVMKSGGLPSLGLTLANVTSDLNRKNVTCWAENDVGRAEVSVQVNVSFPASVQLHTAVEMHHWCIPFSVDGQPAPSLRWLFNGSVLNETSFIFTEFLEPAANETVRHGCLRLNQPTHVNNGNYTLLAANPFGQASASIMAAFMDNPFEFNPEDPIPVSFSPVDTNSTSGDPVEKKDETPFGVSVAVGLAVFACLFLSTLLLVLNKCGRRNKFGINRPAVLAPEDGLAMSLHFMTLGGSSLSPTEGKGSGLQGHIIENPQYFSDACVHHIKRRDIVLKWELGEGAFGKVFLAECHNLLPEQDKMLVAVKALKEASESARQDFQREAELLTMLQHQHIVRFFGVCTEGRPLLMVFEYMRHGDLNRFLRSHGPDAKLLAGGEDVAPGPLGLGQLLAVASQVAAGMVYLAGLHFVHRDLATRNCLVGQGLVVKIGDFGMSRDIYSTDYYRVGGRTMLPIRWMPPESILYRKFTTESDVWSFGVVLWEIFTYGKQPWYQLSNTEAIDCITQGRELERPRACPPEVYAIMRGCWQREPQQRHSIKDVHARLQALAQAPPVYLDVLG

[5] = molecular target: v-Src (Rous sarcoma virus (strain Schmidt-Ruppin A), UniProt P00524); test: Kinase selectivity: v-Src; type: biochemical; details: 50 μM concentration
Sequence of v-Src (P00524 2-526): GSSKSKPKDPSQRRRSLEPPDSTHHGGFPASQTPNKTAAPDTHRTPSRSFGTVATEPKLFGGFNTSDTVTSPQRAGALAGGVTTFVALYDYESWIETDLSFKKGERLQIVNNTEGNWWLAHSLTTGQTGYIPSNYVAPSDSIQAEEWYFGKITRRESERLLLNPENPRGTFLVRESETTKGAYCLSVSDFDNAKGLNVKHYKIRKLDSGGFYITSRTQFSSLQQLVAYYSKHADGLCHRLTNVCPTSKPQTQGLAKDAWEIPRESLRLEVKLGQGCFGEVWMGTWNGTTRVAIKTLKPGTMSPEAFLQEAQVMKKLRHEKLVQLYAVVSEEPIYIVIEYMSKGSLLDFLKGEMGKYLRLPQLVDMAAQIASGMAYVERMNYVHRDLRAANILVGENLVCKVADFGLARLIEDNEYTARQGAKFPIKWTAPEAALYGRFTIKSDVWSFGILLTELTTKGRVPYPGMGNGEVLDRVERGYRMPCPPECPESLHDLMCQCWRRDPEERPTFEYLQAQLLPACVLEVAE

[6] = molecular target: EGFR Tyrosine kinase (Homo sapiens, UniProt P00533); test: Kinase selectivity: EGFR Tyrosine kinase; type: biochemical; details: 50 μM concentration
Sequence of EGFR Tyrosine kinase (P00533 25-1210): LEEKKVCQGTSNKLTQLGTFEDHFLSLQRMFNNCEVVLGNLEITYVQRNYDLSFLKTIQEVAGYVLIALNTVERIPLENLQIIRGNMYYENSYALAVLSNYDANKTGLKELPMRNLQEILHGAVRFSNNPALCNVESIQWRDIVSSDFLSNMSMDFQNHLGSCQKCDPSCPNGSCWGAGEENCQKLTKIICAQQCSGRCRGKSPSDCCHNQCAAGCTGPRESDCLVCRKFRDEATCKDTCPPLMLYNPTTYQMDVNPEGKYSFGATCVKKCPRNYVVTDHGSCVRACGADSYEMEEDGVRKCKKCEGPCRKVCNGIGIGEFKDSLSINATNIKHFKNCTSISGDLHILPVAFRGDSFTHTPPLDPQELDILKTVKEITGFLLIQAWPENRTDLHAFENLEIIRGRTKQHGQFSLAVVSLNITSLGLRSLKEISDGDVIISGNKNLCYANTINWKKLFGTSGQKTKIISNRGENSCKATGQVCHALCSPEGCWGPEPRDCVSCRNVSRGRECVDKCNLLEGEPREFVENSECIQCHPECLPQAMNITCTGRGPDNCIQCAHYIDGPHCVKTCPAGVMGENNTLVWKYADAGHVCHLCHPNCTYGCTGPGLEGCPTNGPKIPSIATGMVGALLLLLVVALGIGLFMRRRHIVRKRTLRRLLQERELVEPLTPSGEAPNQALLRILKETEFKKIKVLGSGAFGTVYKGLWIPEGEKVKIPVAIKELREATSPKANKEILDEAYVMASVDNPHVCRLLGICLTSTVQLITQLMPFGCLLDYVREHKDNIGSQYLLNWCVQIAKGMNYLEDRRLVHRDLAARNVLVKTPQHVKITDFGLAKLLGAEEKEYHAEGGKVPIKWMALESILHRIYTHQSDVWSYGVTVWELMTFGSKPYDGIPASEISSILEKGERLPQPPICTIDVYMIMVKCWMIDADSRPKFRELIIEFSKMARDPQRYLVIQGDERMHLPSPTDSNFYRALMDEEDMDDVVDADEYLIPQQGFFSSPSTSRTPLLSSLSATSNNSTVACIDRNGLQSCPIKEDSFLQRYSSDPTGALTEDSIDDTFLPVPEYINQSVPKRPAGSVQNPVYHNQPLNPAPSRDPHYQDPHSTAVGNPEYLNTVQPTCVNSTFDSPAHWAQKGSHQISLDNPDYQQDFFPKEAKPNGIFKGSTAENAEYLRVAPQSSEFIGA

[7] = tested on: v-Raf/3Y1; test: Growth in soft-agar, v-Raf/3Y1; type: cell-based; details: v-Raf/3Y1, anchorage independent (soft agar clonogenicity)
Procedure: as §2

[8] = tested on: Balb 3T3; test: 3H-Thymidine incorporation, PDGF-stimulated, Balb 3T3; type: cell-based; details: Mus musculus; Balb 3T3, PDGF-stimulated
Procedure: (§3) Cells were plated in multi-well plates and grown to near confluence. The media was then removed and replaced with growth media containing 1% bovine serum albumin. After 24-hour serum starvation, compounds and specific growth factors were added and incubations continued for an additional 24 hours. During the final 2 hours, 3H-thymidine was added to the medium. To terminate the incubations, the medium was removed and cell layers washed twice with ice-cold phosphate-buffered saline. After the final wash, ice-cold 5% trichloroacetic acid was added and the cells incubated for 15 minutes at room temperature. The trichloro-acetic acid solution was then removed and the cell layer washed three times with distilled water. After the final wash, the cell layer was solubilized by addition of 2% sodium dodecylsulfate. Radioactivity in this solution was determined by scintillation counting.

[9] = tested on: K-Ras/NRK; test: Monolayer growth, K-Ras/NRK; type: cell-based; details: anchorage dependent
Procedure: (§4) Cells were plated into multi-well plates at 10 to 20,000 cells/mL. Forty-eight hours after seeding, compounds were added to the cell growth medium and incubation was continued for 2 additional days. Cells were then removed from the wells by incubation with trypsin and enumerated with a Coulter counter. Growth in soft-agar.

[10] = tested on: v-Raf/3Y1; test: Monolayer growth, v-Raf/3Y1; type: cell-based; details: v-Raf/3Y1, anchorage dependent
Procedure: as §4

[11] = tested on: K562; test: Monolayer growth, K562; type: cell-based; details: Homo sapiens; K562, anchorage dependent
Procedure: as §4

[12] = tested on: K-Ras/Balb; test: Monolayer growth, K-Ras/Balb; type: cell-based; details: Mus musculus, anchorage dependent
Procedure: as §4

[13] = tested on: RSV/RAT-1; test: Monolayer growth, RSV/RAT-1; type: cell-based; details: read-out: Monolayer Growth IC50
Procedure: as §4

[14] = tested on: 3T3-L1 adipocyte cells; test: Insulin-stimulated synthesis of glycogen; type: cell-based, murine; details: 10 μM concentration
[15] = tested on: RSV/RAT-1; test: Growth in soft-agar, RSV/RAT-1; type: cell-based; details: read-out: Agar Growth IC50
Procedure: as §2

[16] = tested on: MAP kinase; test: Whole cell MAP kinase assay, 3T3-L1 cells stimulated with insulin; type: cell-based, murine
Procedure: as §1, with “Cells” for “To determine if compounds were able to block activation of MAP kinase in whole cells, the following protocol was used: Cells were plated in multi-well plates and grown to confluence. Cells”, “buffer.” for “buffer. Phosphorylated Map2 was resolved on 7.5% acrylamide gels and incorporated radioactivity determined by autoradiography and subsequent excision of the bands followed by scintillation counting.”

[17] = tested on: K562; test: Growth in soft-agar, K562; type: cell-based; details: Homo sapiens; K562, anchorage independent (soft agar clonogenicity)
Procedure: as §2

[18] = molecular target: T1, MEK (Homo sapiens, UniProt Q02750); type: biochemical; details: order of addition experiments
T1 sequence (Q02750 whole entry, the tested form may be a part): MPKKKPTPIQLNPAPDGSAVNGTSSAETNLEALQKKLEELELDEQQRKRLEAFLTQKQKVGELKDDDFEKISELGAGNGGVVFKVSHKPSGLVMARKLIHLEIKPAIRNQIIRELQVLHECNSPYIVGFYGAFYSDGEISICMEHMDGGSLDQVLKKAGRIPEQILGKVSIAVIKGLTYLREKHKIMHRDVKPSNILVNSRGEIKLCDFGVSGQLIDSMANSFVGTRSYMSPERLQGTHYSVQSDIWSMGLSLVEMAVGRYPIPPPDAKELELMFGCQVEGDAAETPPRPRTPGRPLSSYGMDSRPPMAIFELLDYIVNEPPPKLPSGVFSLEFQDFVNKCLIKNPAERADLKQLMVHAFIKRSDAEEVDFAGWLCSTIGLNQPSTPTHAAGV
Procedure: Incorporation of ^32 P into myelin basic protein (MBP) was assayed in the presence of a glutathione S-transferase fusion protein containing p44MAP kinase (GST-MAPK) and a glutathione S-transferase fusion protein containing p45MEK (GST-MEK). […] Compounds were assessed at 10 μM for ability to inhibit incorporation of ^32 P.
To ascertain whether compounds were inhibiting GST-MEK or GST MAPK, two additional protocols were employed. In the first protocol, compounds were added to tubes containing GST-MEK, followed by addition of GST-MAPK, MBP and [γ-^32 P]ATP. In the second protocol, compounds were added to tubes containing both GST-MEK and GST-MAPK, followed by MBP and [γ-^32 P]ATP.

[19] = tested on: PI-3 kinase; test: Kinase selectivity: PI-3 kinase; type: biochemical; details: 50 μM concentration
[20] = tested on: Protein kinase C (rat brain homogenate c-PKC mixture); test: Kinase selectivity: Protein kinase C; type: biochemical; details: 50 μM concentration
[21] = tested on: K-Balb 3T3; test: 3H-Thymidine incorporation, PDGF-stimulated, K-Balb 3T3; type: cell-based; details: K-Balb 3T3, PDGF-stimulated
Procedure: as §3

[22] = molecular target: T1, MEK; type: biochemical
[23] = tested on: EGFR/Swiss 3T3; test: Growth in soft-agar, EGFR/Swiss 3T3; type: cell-based; details: EGFR/Swiss 3T3, anchorage independent (soft agar clonogenicity)
Procedure: as §2

[24] = molecular target: E. coli histidine kinase NRII (Escherichia coli, UniProt P0AFB5); test: Kinase selectivity: E. coli histidine kinase NRII; type: biochemical; details: 50 μM concentration
Sequence of E. coli histidine kinase NRII (P0AFB5 whole entry): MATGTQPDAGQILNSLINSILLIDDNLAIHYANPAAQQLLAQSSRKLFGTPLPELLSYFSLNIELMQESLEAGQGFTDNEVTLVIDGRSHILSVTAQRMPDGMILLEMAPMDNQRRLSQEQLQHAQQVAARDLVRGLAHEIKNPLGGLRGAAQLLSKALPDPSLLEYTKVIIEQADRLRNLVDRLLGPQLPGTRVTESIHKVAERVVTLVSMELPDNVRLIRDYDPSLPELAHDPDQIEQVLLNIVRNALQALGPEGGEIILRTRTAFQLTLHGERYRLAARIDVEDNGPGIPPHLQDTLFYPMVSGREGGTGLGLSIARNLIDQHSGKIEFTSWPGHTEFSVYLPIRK

[25] = tested on: 3T3-L1 adipocyte cells; test: Insulin-stimulated synthesis of lipid; type: cell-based, murine; details: 10 μM concentration
[26] = molecular target: RAF (Homo sapiens, UniProt P04049); test: Kinase selectivity: RAF; type: biochemical; details: 50 μM concentration
Sequence of RAF (P04049 whole entry): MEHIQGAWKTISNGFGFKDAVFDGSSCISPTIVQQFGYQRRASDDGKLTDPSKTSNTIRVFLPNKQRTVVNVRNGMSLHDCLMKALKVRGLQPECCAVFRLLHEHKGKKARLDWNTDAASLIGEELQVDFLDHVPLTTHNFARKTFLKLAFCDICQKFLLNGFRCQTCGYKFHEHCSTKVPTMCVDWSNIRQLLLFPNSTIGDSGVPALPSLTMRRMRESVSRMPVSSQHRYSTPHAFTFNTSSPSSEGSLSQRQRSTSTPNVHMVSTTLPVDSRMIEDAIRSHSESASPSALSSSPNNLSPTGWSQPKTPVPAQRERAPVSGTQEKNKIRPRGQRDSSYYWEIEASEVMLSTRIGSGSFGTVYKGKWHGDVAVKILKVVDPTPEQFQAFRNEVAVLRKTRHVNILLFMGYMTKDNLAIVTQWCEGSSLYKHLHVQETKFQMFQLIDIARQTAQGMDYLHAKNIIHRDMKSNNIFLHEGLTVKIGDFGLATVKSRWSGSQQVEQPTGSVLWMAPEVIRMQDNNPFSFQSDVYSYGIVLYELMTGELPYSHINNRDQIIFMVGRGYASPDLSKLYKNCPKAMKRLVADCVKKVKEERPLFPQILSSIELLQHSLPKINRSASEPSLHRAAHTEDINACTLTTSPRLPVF

[27] = molecular target: PDGFRβ Tyrosine kinase (Homo sapiens, UniProt P09619); test: Kinase selectivity: PDGFRβ Tyrosine kinase; type: biochemical; details: 50 μM concentration
Sequence of PDGFRβ Tyrosine kinase (P09619 33-1106): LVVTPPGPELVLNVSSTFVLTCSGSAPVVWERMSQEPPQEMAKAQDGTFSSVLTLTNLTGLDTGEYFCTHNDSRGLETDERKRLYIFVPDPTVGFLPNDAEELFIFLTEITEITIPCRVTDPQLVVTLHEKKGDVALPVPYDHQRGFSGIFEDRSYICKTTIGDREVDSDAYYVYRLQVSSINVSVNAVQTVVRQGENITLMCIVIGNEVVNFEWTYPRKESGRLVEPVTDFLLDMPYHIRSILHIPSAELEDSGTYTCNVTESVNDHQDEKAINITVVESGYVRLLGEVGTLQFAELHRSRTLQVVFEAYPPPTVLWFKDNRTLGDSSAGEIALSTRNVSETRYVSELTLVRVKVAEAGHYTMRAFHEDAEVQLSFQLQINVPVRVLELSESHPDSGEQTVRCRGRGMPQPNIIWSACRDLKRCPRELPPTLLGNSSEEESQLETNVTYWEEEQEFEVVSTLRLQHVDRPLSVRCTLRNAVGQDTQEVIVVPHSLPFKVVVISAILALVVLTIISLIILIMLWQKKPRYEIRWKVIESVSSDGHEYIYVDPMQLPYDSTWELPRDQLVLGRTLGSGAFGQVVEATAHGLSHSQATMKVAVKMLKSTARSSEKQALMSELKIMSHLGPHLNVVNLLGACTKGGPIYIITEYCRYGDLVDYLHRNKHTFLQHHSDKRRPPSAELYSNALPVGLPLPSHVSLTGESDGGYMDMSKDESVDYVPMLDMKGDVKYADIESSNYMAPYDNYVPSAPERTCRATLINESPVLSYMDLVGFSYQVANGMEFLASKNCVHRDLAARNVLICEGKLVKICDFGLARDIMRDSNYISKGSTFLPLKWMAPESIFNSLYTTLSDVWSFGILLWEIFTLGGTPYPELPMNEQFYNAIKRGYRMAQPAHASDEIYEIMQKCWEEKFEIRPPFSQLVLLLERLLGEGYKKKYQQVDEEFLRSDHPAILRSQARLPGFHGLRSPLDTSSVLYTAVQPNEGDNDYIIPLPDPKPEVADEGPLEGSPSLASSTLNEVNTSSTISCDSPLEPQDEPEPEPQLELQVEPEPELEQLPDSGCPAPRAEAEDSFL

[28] = tested on: EGFR/Swiss 3T3; test: Monolayer growth, EGFR/Swiss 3T3; type: cell-based; details: EGFR/Swiss 3T3, anchorage dependent
Procedure: as §4

[29] = tested on: MAP kinase; test: In vitro MAP kinase assay; type: biochemical; details: 50 μM concentration
Procedure: Inhibitory activity was also confirmed in direct assays. For MAP kinase, 1 μg GST-MAPK was incubated with 40 μg MBP for 15 minutes at 30° C. in a final volume of 50 μL containing 50 mM Tris (pH 7.5), 10 μM MgCl2, 2 μM EGTA, and 10 μM [γ-^32 P]ATP. The reaction was stopped by addition of Laemmli SDS sample buffer and phosphorylated MBP resolved by electrophoresis on a 10% polyacrylamide gel. Radioactivity incorporated into MBP was determined by autoradiography, and subsequently by excision of the bands followed by scintillation counting.

[30] = tested on: K-Ras/NRK; test: Growth in soft-agar, K-Ras/NRK; type: cell-based; details: anchorage independent (soft agar clonogenicity)
Procedure: as §2

COc1cccc(-c2cc(=O)c3ccccc3o2)c1N [invention compound, 2-(2-amino-3-methoxyphenyl)-4-oxo-4H-[1]benzopyran]
effect on insulin stimulated uptake of radiolabeled 2-deoxyglucose [1]: does not affect
effect on insulin stimulated uptake of radiolabeled 2-deoxyglucose ([1]; listed as compound): no effect
IC50 [2]: 7 µM
IC50 [3]: 1.5 µM
inhibition of NGFR (trk-A) Tyrosine kinase [4]: does not appreciably inhibit
inhibition of v-Src [5]: does not appreciably inhibit
inhibition of EGFR Tyrosine kinase [6]: does not appreciably inhibit
IC50 [7]: 4.5 µM
IC50 [8]: 8 µM
IC50 [9]: 40 µM
IC50 [10]: 50 µM
IC50 [11]: > 100 µM
IC50 [12]: 25 µM
IC50 [13]: > 100 µM
effect on insulin-stimulated synthesis of glycogen [14]: does not affect
effect on insulin-stimulated synthesis of glycogen ([14]; listed as compound): no effect
IC50 [15]: 60 µM
IC50 ([16]; Mus musculus, 3T3-L1 cells stimulated with insulin, read-out: IC50, activation of MAP kinase in whole cells): 3 µM
activation of insulin stimulated MAP kinase ([16]; murine 3T3-L1 adipocytes, insulin): does inhibit
IC50 [17]: 60 µM
enzyme inhibited in the cascade (MEK or MAP kinase) [18]: inhibiting MEK and not MAP kinase
inhibition of PI-3 kinase [19]: does not appreciably inhibit
inhibition of Protein kinase C [20]: does not appreciably inhibit
IC50 [21]: 10 µM
competition with ATP (kinetic analysis) [22]: not competitive with ATP
IC50 [23]: > 100 µM
inhibition of E. coli histidine kinase NRII [24]: does not appreciably inhibit
effect on insulin-stimulated synthesis of lipid [25]: does not affect
effect on insulin-stimulated synthesis of lipid ([25]; listed as compound): no effect
inhibition of RAF [26]: does not appreciably inhibit
inhibition of PDGFRβ Tyrosine kinase [27]: does not appreciably inhibit
IC50 [28]: > 100 µM
inhibition of MAP kinase [29]: does not appreciably inhibit
IC50 [30]: 2 µM

From patent publication US5525625A (priority 1995, dated 1996)
